Source: paper PMC12635268, “Novel antimicrobial peptides and peptide-microbiome crosstalk in Appalachian salamander skin” (NPJ Biofilms and Microbiomes, 2025)
Values after ≈ are worked out from the molar mass of the structure shown. Ends that are not written are not given here. Peptide text beside a SMILES is read from it.

What was measured:
K. pneumoniae 4640 = settings: for MIC: K. pneumoniae 4640, CAMHB, 1 × 10⁵ CFU/mL, 0.25 to 128 μg/mL, 37 °C 20 h, duplicate, read visually (CLSI)
A. baumannii 5075 = settings: for MIC: CAMHB, 1 × 10⁵ CFU/mL, 0.25 to 128 μg/mL, 37 °C 20 h, duplicate, read visually (CLSI)
P. aeruginosa PA01 = assay: microbe, parasite or virus in culture; format: cell-based; settings: for MIC: 20 h
Procedure: Antimicrobial susceptibility testing of the 20 synthesized peptides against 17 bacterial strains of clinical relevance in the ESKAPEE panel was conducted using minimum inhibitory concentration (MIC) assays following the broth microdilution method outlined by Parker et al.[91]. The ESKAPEE panel is comprised of fourteen American Type Culture Collection (ATCC) strains and three Multidrug Resistant Organism Repository and Surveillance Network (MRSN) bacterial strains. These strains represent at least one drug-susceptible strain and one drug-resistant strain for each bacterium to assess drug efficacy across various resistance mechanisms. This panel is comprised of the following bacterial species and strains: E. faecium (ATCC 19434, ATCC 49224), S. aureus (ATCC 25923, ATCC 43300), K. pneumoniae (ATCC 700603, ATCC 13883, MRSN 1320), A. baumannii (ATCC 17978, ATCC 19606, MRSN 959), P. aeruginosa (ATCC 15692, ATCC 27853, MRSN 5519), E. cloacae (ATCC 13047, ATCC 35549), and E. coli (ATCC 35218, ATCC 43888). Bacteria were grown in cation-adjusted Mueller-Hinton broth (CAMHB) to achieve a final inoculum of 1 × 10⁵ CFU/mL. CAMHB is selected for its batch-to-batch reproducibility, low levels of antimicrobial inhibitors, and ability to support the growth of most bacterial pathogens.
Briefly, lyophilized peptides were dissolved in 0.2% TFA + 0.4% BSA in water to 2.56 mg/mL, ultrasonicated for 20 min, diluted 10-fold into CAMHB, and then serially diluted 2-fold in 0.02% TFA + 0.04% BSA in CAMHB and assayed at a concentration of 0.25 to 128 μg/mL. Assays were set up using the Tecan Freedom EVO liquid handling robot and software (Tecan, Switzerland) with 50 μL of bacterial inoculum and 50 μL of peptide transferred into round-bottom 96-well microtiter plates. Each plate assay was performed in duplicate and incubated at 37 °C for 20 h without agitation. Bacterial growth was assessed using the BIOMIC V3 Image Analysis system (Giles Scientific, USA) and the MIC values were determined visually according to the Clinical and Laboratory Standards Institute (CLSI) guidelines.

[1] = design: method as in Biomatik (vendor); settings: 1.0 mg peptide in 1.0 ml solvent; peptides synthesized by Biomatik; ref Biomatik (vendor); cited from earlier work
P. aeruginosa PA01 (Si) = assay: microbe, parasite or virus in culture; format: cell-based; settings: Si
Excerpt: Supplement 41522_2025_837_MOESM13_ESM.xlsx, sheet "Table_S13_ESKAPEE-MIC" | column: Bacterial MIC (µg/mL)

S. aureus ATCC 25923 = assay: microbe, parasite or virus in culture
In short: (§1)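 Broth microdilution MIC in cation-adjusted Mueller-Hinton broth, final inoculum 1 × 10⁵ CFU/mL. Peptides in 0.02% TFA + 0.04% BSA, 2-fold series 0.25 to 128 μg/mL, duplicate, 37 °C for 20 h without agitation. Growth imaged; MIC read visually per CLSI.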

S. aureus ATCC 43300 = assay: microbe, parasite or virus in culture; settings: S. aureus 43300; for MIC: CAMHB, 1 × 10⁵ CFU/mL, 0.25 to 128 μg/mL, 37 °C 20 h, duplicate, read visually (CLSI)
In short: as §1

E. coli ATCC 35218 = assay: microbe, parasite or virus in culture
In short: as §1

E. faecium ATCC 49224 = assay: microbe, parasite or virus in culture; settings: for MIC: E. faecium 49224, CAMHB, 1 × 10⁵ CFU/mL, 0.25 to 128 μg/mL, 37 °C 20 h, duplicate, read visually (CLSI)
In short: as §1

E. cloacae ATCC 13047 = assay: microbe, parasite or virus in culture; settings: for MIC: E. cloacae 13047, CAMHB, 1 × 10⁵ CFU/mL, 0.25 to 128 μg/mL, 37 °C 20 h, duplicate, read visually (CLSI)
In short: as §1

E. coli ATCC 43888 = assay: microbe, parasite or virus in culture; settings: ATCC 43888, 20 h
In short: as §1

E. faecium ATCC 19434 = assay: microbe, parasite or virus in culture; settings: for MIC: E. faecium 19434, CAMHB, 1 × 10⁵ CFU/mL, 0.25 to 128 μg/mL, 37 °C 20 h, duplicate, read visually (CLSI)
In short: as §1

E. cloacae ATCC 35549 = assay: microbe, parasite or virus in culture; settings: for MIC: E. cloacae 35549, CAMHB, 1 × 10⁵ CFU/mL, 0.25 to 128 μg/mL, 37 °C 20 h, duplicate, read visually (CLSI)
In short: as §1

A. baumannii ATCC 19606 = assay: microbe, parasite or virus in culture; settings: for MIC: A. baumannii 19606, CAMHB, 1 × 10⁵ CFU/mL, 0.25 to 128 μg/mL, 37 °C 20 h, duplicate, read visually (CLSI)
In short: as §1

A. baumannii ATCC 17978 = assay: microbe, parasite or virus in culture; settings: for MIC: A. baumannii 17978, CAMHB, 1 × 10⁵ CFU/mL, 0.25 to 128 μg/mL, 37 °C 20 h, duplicate, read visually (CLSI)
In short: as §1

P. aeruginosa MRSN 5519 = assay: microbe, parasite or virus in culture; settings: for MIC: P. aeruginosa 5519, CAMHB, 1 × 10⁵ CFU/mL, 0.25 to 128 μg/mL, 37 °C 20 h, duplicate, read visually (CLSI)
In short: as §1

[2] = tested on: K. pneumoniae ATCC 700603; assay: microbe, parasite or virus in culture; settings: K. pneumoniae 700603; for MIC: CAMHB, 1 × 10⁵ CFU/mL, 0.25 to 128 μg/mL, 37 °C 20 h, duplicate, read visually (CLSI)
In short: as §1

K. pneumoniae ATCC 13883 = assay: microbe, parasite or virus in culture; settings: for MIC: K. pneumoniae 13883, CAMHB, 1 × 10⁵ CFU/mL, 0.25 to 128 μg/mL, 37 °C 20 h, duplicate, read visually (CLSI)
In short: as §1

P. aeruginosa ATCC 27853 = assay: microbe, parasite or virus in culture
In short: as §1

Compound	MIC (K. pneumoniae 4640) [µg/mL]	MIC (A. baumannii 5075) [µg/mL]	MIC (P. aeruginosa PA01) [µg/mL]	Suggest solvent (solubility) [1]	Bacterial MIC (P. aeruginosa PA01 (Si)) [µg/mL]	MIC (S. aureus ATCC 43300) [µg/mL]	Bacterial MIC (E. coli ATCC 35218; ATCC 35218, 20 h) [µg/mL]	MIC (E. coli ATCC 35218; ATCC 35218, 20 h) [µg/mL]	MIC (E. faecium ATCC 49224) [µg/mL]	MIC (E. cloacae ATCC 13047) [µg/mL]	Bacterial MIC (E. coli ATCC 43888) [µg/mL]	MIC (E. faecium ATCC 19434) [µg/mL]	MIC (E. cloacae ATCC 35549) [µg/mL]	MIC (A. baumannii ATCC 19606) [µg/mL]	MIC (A. baumannii ATCC 17978) [µg/mL]	MIC (P. aeruginosa MRSN 5519) [µg/mL]	MIC [2] [µg/mL]	MIC (K. pneumoniae ATCC 13883) [µg/mL]	Bacterial MIC (S. aureus ATCC 25923; ATCC 25923, 20 h) [µg/mL]	other results
CC[C@H](C)[C@H](NC(=O)[C@H](CO)NC(=O)[C@H](CO)NC(=O)[C@H](Cc1ccccc1)NC(=O)[C@H](CS)NC(=O)CNC(=O)CNC(=O)[C@H](CCCNC(=N)N)NC(=O)[C@H](CCCNC(=N)N)NC(=O)[C@H](Cc1ccc(O)cc1)NC(=O)[C@H](CS)NC(=O)[C@H](CC(N)=O)NC(=O)[C@H](Cc1c[nH]c2ccccc12)NC(=O)[C@@H]1CCCN1C(=O)[C@H](CCCNC(=N)N)NC(=O)[C@H](C)NC(=O)[C@H](CCCNC(=N)N)NC(=O)[C@H](CCCNC(=N)N)NC(=O)[C@@H](NC(=O)[C@H](CCCNC(=N)N)NC(=O)[C@@H](NC(=O)[C@H](CCCNC(=N)N)NC(=O)[C@H](CCCCN)NC(=O)[C@@H](N)CC(C)C)[C@@H](C)O)C(C)C)C(=O)NCC(=O)N[C@@H](CO)C(=O)N[C@@H](CC(C)C)C(=O)N[C@H](C(=O)N1CCC[C@H]1C(=O)N[C@H](C(=O)O)C(C)C)[C@@H](C)O [Pcin-CATH3] (H-LKRTRVRRARPWNCYRRGGCFSSIGSLTPV-OH; N-terminus and C-terminus assumed)	>128	16 (≈ 4.58 µM)	32 (≈ 9.16 µM)	1.0mg peptide soluble in 1.0ml H2O	32	>128	128	>128	>128	>128	64	>128	>128	64 (≈ 18.3 µM)	64 (≈ 18.3 µM)	>128	>128	>128	–	MIC (S. aureus ATCC 25923; S. aureus 25923, CAMHB, 1 × 10⁵ CFU/mL, 0.25 to 128 μg/mL, 37 °C 20 h, duplicate, read visually (CLSI)): >128 µg/mL; MIC (P. aeruginosa ATCC 27853; P. aeruginosa 27853, CAMHB, 1 × 10⁵ CFU/mL, 0.25 to 128 μg/mL, 37 °C 20 h, duplicate, read visually (CLSI)): >128 µg/mL
CC[C@H](C)[C@H](NC(=O)[C@H](CO)NC(=O)[C@H](Cc1ccc(O)cc1)NC(=O)[C@H](CS)NC(=O)CNC(=O)[C@H](C)NC(=O)[C@H](CCCNC(=N)N)NC(=O)[C@H](CCCNC(=N)N)NC(=O)[C@H](Cc1ccc(O)cc1)NC(=O)[C@H](CS)NC(=O)[C@H](CCCCN)NC(=O)[C@H](Cc1c[nH]c2ccccc12)NC(=O)[C@@H]1CCCN1C(=O)[C@H](CCCNC(=N)N)NC(=O)[C@H](C)NC(=O)[C@H](CCCNC(=N)N)NC(=O)[C@H](CCCNC(=N)N)NC(=O)[C@@H](NC(=O)[C@H](CCCNC(=N)N)NC(=O)[C@@H](NC(=O)[C@H](CCCNC(=N)N)NC(=O)[C@H](CCCCN)NC(=O)[C@@H](N)CO)[C@@H](C)O)C(C)C)C(=O)N[C@H](C(=O)NCC(=O)N[C@@H](CCSC)C(=O)N[C@@H](Cc1ccccc1)C(=O)N[C@@H](CCCCN)C(=O)N[C@@H](CCCCN)C(=O)N[C@@H](CO)C(=O)O)[C@@H](C)CC [Pcin-CATH5] (H-SKRTRVRRARPWKCYRRAGCYSIIGMFKKS-OH; N-terminus and C-terminus assumed)	>128	4 (≈ 1.09 µM)	16 (≈ 4.37 µM)	1.0mg peptide soluble in 1.0ml H2O	8 to 16	64 (≈ 17.5 µM)	16 to 32	32 (≈ 8.74 µM)	64 (≈ 17.5 µM)	>128	16	64 (≈ 17.5 µM)	>128	8 (≈ 2.18 µM)	8 (≈ 2.18 µM)	>128	>128	>128	128	MIC (S. aureus ATCC 25923; ATCC 25923, 20 h): >128 µg/mL; MIC (P. aeruginosa ATCC 27853; ATCC 27853, 20 h): >128 µg/mL
DVGTQGLSPLR [PrAd-Eb22]	–	–	–	1.0mg peptide soluble in 1.0ml H2O	>128.000	–	–	–	–	–	>128.000	–	–	–	–	–	–	–	>128.000	Bacterial MIC (K. pneumoniae 4640; 4640, 20 h): >128.000 µg/mL; Bacterial MIC (A. baumannii 5075; Week 2 (12/14/2023)): >128.000 µg/mL; Bacterial MIC (P. aeruginosa PA01; P. aeruginosa 15692 (PAO1), Week 2 (12/14/2023)): >128.000 µg/mL; Bacterial MIC (S. aureus ATCC 43300; Week 2 (12/14/2023)): >128.000 µg/mL; Bacterial MIC (E. coli ATCC 35218; E. coli 35218, Week 2 (12/14/2023)): >128.000 µg/mL; Bacterial MIC (E. faecium ATCC 49224; ATCC 49224, 20 h): >128.000 µg/mL; Bacterial MIC (E. cloacae ATCC 13047; ATCC 13047, 20 h): >128.000 µg/mL; Bacterial MIC (E. faecium ATCC 19434; ATCC 19434, 20 h): >128.000 µg/mL; Bacterial MIC (E. cloacae ATCC 35549; ATCC 35549, 20 h): >128.000 µg/mL; Bacterial MIC (A. baumannii ATCC 19606; ATCC 19606, 20 h): >128.000 µg/mL; Bacterial MIC (A. baumannii ATCC 17978; ATCC 17978, 20 h): >128.000 µg/mL; Bacterial MIC (P. aeruginosa MRSN 5519; MRSN 5519, 20 h): >128.000 µg/mL; Bacterial MIC ([2]; Week 2 (12/14/2023)): >128.000 µg/mL; Bacterial MIC (K. pneumoniae ATCC 13883; ATCC 13883, 20 h): >128.000 µg/mL; Bacterial MIC (P. aeruginosa ATCC 27853; ATCC 27853, 20 h): >128.000 µg/mL
